# From ChEMBL document CHEMBL1124919, “Synthesis and biochemical studies of 7-substituted 4,6-androstadiene-3,17-diones as aromatase inhibitors” (J Med Chem, 1990)
# Tested on: not listed separately
# Experiment: Apparent Km value was determined
# Assay type: ADME
row,Structure (SMILES),Km [nM]
1,C[C@]12CCC(=O)C=C1CC[C@@H]1[C@@H]2CC[C@]2(C)C(=O)CC[C@@H]12 [ANDROSTENEDIONE],51

# Molecular target: T1, Aromatase (Homo sapiens, UniProt P11511)
# T1 sequence (P11511 whole entry): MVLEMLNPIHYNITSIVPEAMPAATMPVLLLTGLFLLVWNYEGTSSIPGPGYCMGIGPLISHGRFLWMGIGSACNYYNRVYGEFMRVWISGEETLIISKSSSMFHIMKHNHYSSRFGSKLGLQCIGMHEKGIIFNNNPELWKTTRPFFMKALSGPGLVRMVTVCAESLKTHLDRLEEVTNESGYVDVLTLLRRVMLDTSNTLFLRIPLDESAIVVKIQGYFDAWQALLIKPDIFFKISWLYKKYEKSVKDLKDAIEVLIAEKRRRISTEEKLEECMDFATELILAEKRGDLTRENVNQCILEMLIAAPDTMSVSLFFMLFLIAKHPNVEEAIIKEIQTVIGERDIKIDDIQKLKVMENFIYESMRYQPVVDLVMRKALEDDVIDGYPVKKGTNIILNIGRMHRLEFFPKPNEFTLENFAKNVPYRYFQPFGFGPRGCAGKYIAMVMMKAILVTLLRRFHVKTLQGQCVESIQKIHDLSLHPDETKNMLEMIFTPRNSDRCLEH
# Experiment: In vitro inhibition of human placental cytochrome P450 19A1
row,Structure (SMILES),Ki [nM]
1,CC12CCC3C(C(CCc4ccc(N)cc4)=CC4=CC(=O)CCC43C)C1CCC2=O (configuration not stated),88
2,CC12CCC3C(C(c4ccccc4)=CC4=CC(=O)CCC43C)C1CCC2=O (configuration not stated),1420
3,CC12CCC3C(C(Cc4ccc(N)cc4)=CC4=CC(=O)CCC43C)C1CCC2=O (configuration not stated),88
4,CC12CCC3C(C(CCc4ccccc4)=CC4=CC(=O)CCC43C)C1CCC2=O (configuration not stated),174
5,CC12CCC3C(C(Cc4ccc([N+](=O)[O-])cc4)=CC4=CC(=O)CCC43C)C1CCC2=O (configuration not stated),94
6,CC12CCC3C(C(CCc4ccc([N+](=O)[O-])cc4)=CC4=CC(=O)CCC43C)C1CCC2=O (configuration not stated),95
